Assay results from patent publication US20240360107A1, “AN EIF4A INHIBITOR WITH A NOVEL MECHANISM OF ACTION” (ARIZONA BOARD OF REGENTS ON BEHALF OF THE UNIVERSITY OF …, priority 2021, published 2024).
“Also recorded” adds a separate entry of the source.

target: eIF4A (Homo sapiens, UniProt P60842); test: RNA-stimulated malachite green ATPase assay; assay type: biochemical; design: 6xHis with TEV protease site (N, cleaved yes); made in house; host or cells: E. coli BL21-CodonPlus; details: comparison within the series
Sequence (P60842 whole entry): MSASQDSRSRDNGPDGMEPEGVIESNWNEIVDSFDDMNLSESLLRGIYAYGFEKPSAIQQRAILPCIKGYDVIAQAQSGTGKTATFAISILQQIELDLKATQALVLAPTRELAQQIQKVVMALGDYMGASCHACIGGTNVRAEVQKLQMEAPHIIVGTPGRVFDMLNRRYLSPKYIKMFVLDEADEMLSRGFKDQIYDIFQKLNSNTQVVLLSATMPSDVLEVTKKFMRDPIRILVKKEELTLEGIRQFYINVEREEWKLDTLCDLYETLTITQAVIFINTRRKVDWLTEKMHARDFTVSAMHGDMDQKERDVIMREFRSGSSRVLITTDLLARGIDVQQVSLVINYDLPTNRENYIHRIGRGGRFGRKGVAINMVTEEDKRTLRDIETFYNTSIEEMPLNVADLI
Protocol: Human eIF4A protein was produced recombinantly and a greater than 100,000-compound screen for inhibitors was completed using a malachite green ATPase assay (FIG. 11A). […] A stable mixture of yeast RNAs was added in an effort to improve this system and create a more biologically relevant eIF4A assay. eIF4A ATPase activity was accelerated without a statistically significant increase in the background signal in the presence of this RNA (FIG. 11B), and the new conditions gave excellent statistical parameters in a 384-well plate format (FIG. 11C).
ATPase assay. Recombinant WT or mutant eIF4A was added to a clear bottom 384 well plate (Greiner) in ATPase buffer (20 mM Tris pH 7.4, 80 mM KCl, 2.5 mM MgCl2, 1 mM DTT, 1% glycerol). Compounds were added and the plate was incubated at 37° C. for 20 min. ATP/RNA solution was added to afford a 20 μL per well reaction volume with 750 nM eIF4A, 250 μM ATP, and 0.25 mg/mL Yeast RNA (Sigma) for the initial screen and dose responses, and varying concentrations of ATP and RNA for the kinetic assays. The plate was incubated for 4 h at 37° C. for the initial screen and dose responses, and at seven time points (1 hour-7 hours) for kinetic assays. 0.04% v/v (final concentration) Tween-20 was added to a Malachite Green solution, and the Malachite Green (40 μL per well) was added. The solution was incubated for 5 minutes at room temperature and Absorbance at 660 nm was read on a SpectraMax iD5 plate reader (Molecular Devices).

potency in the eIF4A ATPase assay (in words) | SMILES
large drop in potency | CCCCc1ccc(-c2ccc(-c3cc(C(=O)O)c4c(Cl)cccc4n3)o2)cc1 [Compound 4, 2-(5-(4-butylphenyl)furan-2-yl)-5-chloroquinoline-4-carboxylic acid]
much more potent than 7-methoxy (22) | CCCCc1ccc(-c2ccc(-c3cc(C(=O)O)c4cc(OC)ccc4n3)o2)cc1 [Compound 21, 2-(5-(4-butylphenyl)furan-2-yl)-6-methoxyquinoline-4-carboxylic acid]
lost potency altogether | CCCCc1ccc(-c2cncc(-c3cc(C(=O)O)c4cc([N+](=O)[O-])ccc4n3)c2)cc1 [Compound 35, 2-(5-(4-butylphenyl)pyridin-3-yl)-6-nitroquinoline-4-carboxylic acid]
drop in potency | CCCCc1ccc(-c2cccc(-c3cc(C(=O)O)c4cc([N+](=O)[O-])ccc4n3)c2)cc1 [Compound 33, 2-(4′-butyl-[1,1′-biphenyl]-3-yl)-6-nitroquinoline-4-carboxylic acid]
lost all potency | O=C(O)c1cc(-c2ccc(-c3ccc4c(c3)OCO4)o2)nc2ccc([N+](=O)[O-])cc12 [Compound 48, 2-(5-(benzo[d][1,3]dioxol-5-yl)furan-2-yl)-6-nitroquinoline-4-carboxylic acid]
large drop in potency | CCCCc1ccc(-c2ccc(-c3cc(C(=O)O)c4cc([N+](=O)[O-])ccc4n3)[nH]2)cc1 [Compound 32, 2-(5-(4-butylphenyl)-1H-pyrrol-2-yl)-6-nitroquinoline-4-carboxylic acid]
large drop in potency | CCCCc1ccc(-c2ccc(-c3cc(C(=O)O)c4cc([N+](=O)[O-])ccc4n3)s2)cc1 [Compound 31, 2-(5-(4-butylphenyl)thiophen-2-yl)-6-nitroquinoline-4-carboxylic acid]
less potent than compound 28 | O=C(O)c1cc(-c2ccc(-c3cccc(-c4ccccc4)c3)o2)nc2ccc([N+](=O)[O-])cc12 [Compound 51, 2-(5-([1,1′-biphenyl]-3-yl)furan-2-yl)-6-nitroquinoline-4-carboxylic acid]
drastic loss in potency | O=C(O)c1cc(-c2ccc(-c3ccccc3)o2)nc2ccc([N+](=O)[O-])cc12 [Compound 38, 6-nitro-2-(5-phenylfuran-2-yl)quinoline-4-carboxylic acid]
much less potent than compound 1 | CCCCc1ccc(-c2ccc(-c3cc(C(=O)O)c4ccccc4n3)o2)cc1 [Compound 3, 2-(5-(4-butylphenyl)furan-2-yl)quinoline-4-carboxylic acid]
much less potent than compound 21 | CCCCc1ccc(-c2ccc(-c3cc(C(=O)O)c4cc(OC(F)(F)F)ccc4n3)o2)cc1 [Compound 23, 2-(5-(4-butylphenyl)furan-2-yl)-6-(trifluoromethoxy)quinoline-4-carboxylic acid]
much less potent than 28 | CCCCc1ccc(-c2ccc(-c3cc(C(=O)O)c4cc([N+](=O)[O-])ccc4n3)cn2)cc1 [Compound 37, 2-(6-(4-butylphenyl)pyridin-3-yl)-6-nitroquinoline-4-carboxylic acid]
less potent than bromine (12) | CCCCc1ccc(-c2ccc(-c3cc(C(=O)O)c4cccc(Cl)c4n3)o2)cc1 [Compound 11, 2-(5-(4-butylphenyl)furan-2-yl)-8-chloroquinoline-4-carboxylic acid]
drop in potency | CCCCc1ccc(-c2cccc(-c3cc(C(=O)O)c4cc([N+](=O)[O-])ccc4n3)n2)cc1 [Compound 34, 2-(6-(4-butylphenyl)pyridin-2-yl)-6-nitroquinoline-4-carboxylic acid]
moderate potency | CCCCc1ccc(-c2ccc(-c3cc(C(=O)O)c4ccc(Br)cc4n3)o2)cc1 [Compound 10, 7-bromo-2-(5-(4-butylphenyl)furan-2-yl)quinoline-4-carboxylic acid]
no more potent than 28 | CCCCCc1ccc(-c2ccc(-c3cc(C(=O)O)c4cc([N+](=O)[O-])ccc4n3)o2)cc1 [Compound 40, 6-nitro-2-(5-(4-pentylphenyl)furan-2-yl)quinoline-4-carboxylic acid]
much less potent than 28 | CCCCc1ccc(-c2ccc(-c3cc(C(=O)O)c4cc([N+](=O)[O-])ccc4n3)cc2)cc1 [Compound 36, 2-(4′-butyl-[1,1′-biphenyl]-4-yl)-6-nitroquinoline-4-carboxylic acid]
moderate potency | CCCCc1ccc(-c2ccc(-c3cc(C(=O)O)c4ccc(F)cc4n3)o2)cc1 [Compound 8, 2-(5-(4-butylphenyl)furan-2-yl)-7-fluoroquinoline-4-carboxylic acid]

SMILES | potency in the eIF4A ATPase assay (in words)
O=C(O)c1cc(-c2ccc(-c3ccc(-c4ccccc4)cc3)o2)nc2ccc([N+](=O)[O-])cc12 [Compound 50, 2-(5-([1,1′-biphenyl]-4-yl)furan-2-yl)-6-nitroquinoline-4-carboxylic acid] | less potent than compound 28; also recorded: more potent than meta-substituted 51
O=C(O)c1cc(-c2ccc(-c3cccc4ccccc34)o2)nc2ccc([N+](=O)[O-])cc12 [Compound 49, 2-(5-(naphthalen-1-yl)furan-2-yl)-6-nitroquinoline-4-carboxylic acid] | about four-fold less potent than compound 28
CCCCc1ccc(-c2ccc(-c3cc(C(=O)O)c4cc(I)ccc4n3)o2)cc1 [Compound 7, 2-(5-(4-butylphenyl)furan-2-yl)-6-iodoquinoline-4-carboxylic acid] | moderate losses of potency compared to the bromine substituent
CCCCc1ccc(-c2ccc(-c3cc(C(=O)O)c4cc(Cl)ccc4n3)o2)cc1 [Compound 6, 2-(5-(4-butylphenyl)furan-2-yl)-6-chloroquinoline-4-carboxylic acid] | moderate losses of potency compared to the bromine substituent
CCCCc1ccc(-c2ccc(-c3cc(C(=O)O)c4ccc(C(F)(F)F)cc4n3)o2)cc1 [Compound 26, 2-(5-(4-butylphenyl)furan-2-yl)-7-(trifluoromethyl)quinoline-4-carboxylic acid] | performed better in the ATPase assay than molecules with electron-donating substitutions
CCCCc1ccc(-c2ccc(-c3cc(C(=O)O)c4cccc([N+](=O)[O-])c4n3)o2)cc1 [Compound 30, 2-(5-(4-butylphenyl)furan-2-yl)-8-nitroquinoline-4-carboxylic acid] | over three-fold less potent than compound 28
CC(C)(C)OC(=O)Nc1ccc(-c2ccc(-c3cc(C(=O)O)c4cc([N+](=O)[O-])ccc4n3)o2)cc1 [Compound 45, 2-(5-(4-((tert-butoxycarbonyl)amino)phenyl)furan-2-yl)-6-nitroquinoline-4-carboxylic acid] | low potency
CC(C)(C)OC(=O)Nc1cccc(-c2ccc(-c3cc(C(=O)O)c4cc([N+](=O)[O-])ccc4n3)o2)c1 [Compound 44, 2-(5-(3-((tert-butoxycarbonyl)amino)phenyl)furan-2-yl)-6-nitroquinoline-4-carboxyli c acid] | low potency
CCCCc1ccc(-c2ccc(-c3cc(C(=O)O)c4ccc(OC)cc4n3)o2)cc1 [Compound 22, 2-(5-(4-butylphenyl)furan-2-yl)-7-methoxyquinoline-4-carboxylic acid] | neither were more potent than earlier molecules in the series
CCCCc1ccc(-c2ccc(-c3cc(C(=O)O)c4cccc(C(F)(F)F)c4n3)o2)cc1 [Compound 27, 2-(5-(4-butylphenyl)furan-2-yl)-8-(trifluoromethyl)quinoline-4-carboxylic acid] | performed better in the ATPase assay than molecules with electron-donating substitutions; also recorded: about two-fold better than compound 26

same assay, conditions: relative to compound 1

fold less potent than compound 1 in the ATPase assay | SMILES
about 5 fold | CCCCc1ccc(-c2ccc(-c3cc(C(=O)OCC)c4cc(Br)ccc4n3)o2)cc1 [Compound 2, ethyl 6-bromo-2-(5-(4-butylphenyl)furan-2-yl)quinoline-4-carboxylate]

same assay, conditions: relative to compound 28

fold less potent than 28 in the ATPase assay | SMILES
about 5 fold | CCCc1ccc(-c2ccc(-c3cc(C(=O)O)c4cc([N+](=O)[O-])ccc4n3)o2)cc1 [Compound 39, 6-nitro-2-(5-(4-propylphenyl)furan-2-yl)quinoline-4-carboxylic acid]
